This experiment relates to several fungal species. Nature of the experiment: Leaf disc or leaf segment tests, summary over several fungal species. Format: in vivo. As to conditions: foliar; leaf disc and leaf segment tests; read-out: concentration from which fungal growth is reduced. The method, then:
Leaf disks or leaf segments of various plant species were cut from plants grown in the greenhouse. The cut leaf discs or segments were placed in multiwell plates (24-well format) onto water agar. The leaf disks were sprayed with a test solution before (preventative) or after (curative) inoculation. Compounds to be tested were prepared as water solutions (max. 10 mg/ml) which were diluted to the appropriate concentration with 0.025% Tween20 just before spraying. The inoculated leaf discs or segments were incubated under defined conditions (temperature, relative humidity, light, etc.) according to the respective test system. A single evaluation of disease level was carried out 3-9 days days after inoculation, depending on the pathosystem. Percent disease control relative to the untreated check leaf discs or segments was then calculated.
Wheat leaf segments cv. Kanzler were placed on agar in multiwell plates (24-well format) and sprayed with the formulated test compound diluted in water. […] The inoculated leaf segments were incubated at 19 °C and 75% rh under a light regime of 12 h light/12 h darkness in a climate cabinet and the activity of a compound was assessed as percent disease control compared to untreated leaf when an appropriate level of disease damage appeared in untreated check leaf segments (7-9 days after application). […]

A value given as a limit tells only on which side of the number the result lay.

With `CC(=O)NC1C(OCC(OC2OC(CO)C(O)C(O)C2O)C2OC(OC3C(O)C(CO)OC(OC4(CO)OC(C(O)CO)C(O)C4OC4OC(CO)C(O)C(O)C4O)C3O)C(O)C(O)C2OC2OC(C(O)CO)C(O)C(O)C2OC2OCC(OC(N)=O)C(O)C2O)OC(CO)C(O)C1O` (stereo not shown) [compound of Formula (I)], the minimal effective concentration was no less than 22 µg/mL.

Values taken from patent US20260344665A1, “FUNGICIDAL COMPOUND” (priority 2022, published 2026).
